According to EP0603240B1, “SAFENING HERBICIDAL PYRAZOLYLSULFONYLUREAS” (priority 1991, dated 1993):
Where a name gives a salt, the structure may show the parent alone. Read-outs that look alike come from different tables or passages of the source.

Tests used:
[1] = test system: corn; assay: Example 24, Procedure II: Herbicide No. 1 + co-herbicides Nos. 4, 6, 7, 12 with Antidote Nos. 15 and 17-21; format: in vivo; conditions: antidote 2.24 kg/ha; highest test rate (0.56 kg/ha) of Herbicide No. 1 + co-herbicide
Protocol: (§1) Containers were filled and compacted with a fumigated silt loam top soil to a depth of about 1.3 cm from the top of the container. A first container was designated as an untreated control, a second container was designated as a herbicide control, and a third container was designated as a herbicide + antidote test container. Each of the containers was seeded with a crop species. A measured amount of herbicide dispersed or dissolved in acetone was applied to a measured quantity of soil. To this same quantity of soil treated with herbicide, there was added a measured amount of antidote dispersed or dissolved in acetone. The quantity of soil treated with the herbicide and antidote was thoroughly mixed to incorporate the herbicide and antidote in the soil uniformly. The seed bed in the third container of soil was covered with the soil treated with the herbicide and antidote and the container was leveled. For each test series, the seed beds of the first and second containers were likewise covered by soil layers. the cover layer of the first container was not treated with herbicide or antidote.
(§2) The containers were then placed on a bench in a greenhouse and sub-irrigated as required for the duration of the test. […] Plant response is measured in terms of percent injury. Antidote efficacy is indicated as the difference in plant injury by the herbicide(s) without the antidote and with the antidote.
(§3) This procedure is the same as Procedure I, but modified in the manner that after incorporation of the chemicals (herbicide and antidote) the containers with the covered seedbed were treated with an initial overhead irrigation equivalent to 0.6 cm rainfall, then subsequently sub-irrigated as required on greenhouse benches.
In other greenhouse tests, using Procedure II described above, the safening efficacy of Antidote Nos. 15 and 17-21 was evaluated against Herbicide No. 1 in corn in the presence of Giant foxtail (Setaria fabergi) and Velvetleaf (Abutilon theophrasti) as representative annual monocotyledonous and dicotyledonous weeds, respectively.
Test results are shown in Tables 23A and 23B wherein the indicated plant inhibition represents the average of duplicate replications, with observations being made thirteen (13) days after application of the chemicals. Giant foxtail and Velvetleaf are represented by the symbols "GFT" and "VL", respectively. The data in Table 23A show the test results using the antidotes at 2.24 kg/ha, whereas in Table 23B, the antidotal rate was reduced to 0.56 kg/ha.
The tests described in Example 23 were duplicated, but in this example a variety of co-herbicides were included to ascertain the efficacy of the antidotes against combinations of Herbicide No. 1 and Herbicides Nos. 4, 6, 7 and 12 as co-herbicides. Test results are shown in Table 24, wherein the antidote application rate was 2.24 kg/ha.

[2] = test system: corn; assay: Example 20, Procedure II: Herbicide No. 1 + EPTC or ERADICANE EXTRA with Antidote Nos. 5 and 15; format: in vivo
Protocol: as §1, §2, §3
(§4) This example describes experiments designed to test two generally efficacious antidotal compounds, i.e., Antidote Nos. 5 and 15, against the herbicidal action of the sulfonylurea compound, Herbicide No. 1, and the commercial herbicides EPTC (Herbicide No. 4) and ERADICANE® EXTRA (EPTC + R-29148, Antidote No. 5). Procedure II above was used in conducting these experiments. Formulations of EPTC and ERADICANE EXTRA were applied onto soil cover layers (to be applied over seed beds), followed by sequential pipetting of Herbicide No. 1 and Antidote No. 15. The soil was mixed to homogeneity and spread over the seed beds followed by 0.6 cm of overhead irrigation.

[3] = test system: velvetleaf (Abutilon theophrasti); assay: as above; format: in vivo
Protocol: as §1, §2, §3
(§5) In the series of greenhouse tests described below, for routine screening purposes the herbicide/antidote compositions were tested in crop/weed combinations involving corn as the crop and either or both of the weeds barnyardgrass (Echinochloa crusgalli), a monocotyledonous weed, and velvetleaf (Abutilon theophrasti), a dicotyledonous weed. In the tables below, these weeds are indicated by the symbols "BYG" and "VL", respectively.
as §4

[4] = test system: barnyardgrass (Echinochloa crusgalli); assay: Example 7, Procedure II: Herbicide No. 1 + metolachlor (No. 12) with antidotes; format: in vivo; conditions: Herbicide No.12 3.36 kg/ha alone
Protocol: as §1, §2, §3, §5
(§6) In this example, Procedure II described above was followed. The data from the tests in this example is shown in Table 6 and represents averages of duplicate replications.
(§7) The tests in this example followed the same procedure and antidotes used in Example 6. However, Herbicide No. 12 (metolachlor) was used as the co-herbicide with Herbicide No. 1.

[5] = test system: velvetleaf (Abutilon theophrasti); assay: as above; format: in vivo; conditions: Herbicide No.12 3.36 kg/ha alone
Protocol: as §1, §2, §3, §5, §6, §7

[6] = test system: corn; assay: as above; format: in vivo; conditions: Herbicide No.12 3.36 kg/ha alone
Protocol: as §1, §2, §3, §6, §7

[7] = test system: corn; assay: Example 6, Procedure II: Herbicide No. 1 + alachlor (No. 7) with antidotes; format: in vivo; conditions: Herbicide No.7 4.48 kg/ha alone
Protocol: as §1, §2, §3
(§8) This example was designed to investigate the antidotal efficacy of a plurality of antidotal compounds against a composition comprising Herbicide No. 1 in combination with Herbicide No. 7 (alachlor). The antidotal compounds used herein were Nos. 1, 2, 7, 13 and 15.
as §6

[8] = test system: barnyardgrass (Echinochloa crusgalli); assay: as above; format: in vivo; conditions: Herbicide No.7 4.48 kg/ha alone
Protocol: as §1, §2, §3, §5, §8, §6

[9] = test system: velvetleaf (Abutilon theophrasti); assay: as above; format: in vivo; conditions: Herbicide No.7 4.48 kg/ha alone
Protocol: as §1, §2, §3, §5, §8, §6

[10] = test system: corn; assay: Example 25, greenhouse preemergence test: Antidote Nos. 1 and 2 against Herbicide Nos. 1-3; format: in vivo, Corn (Pioneer 3424 variety); conditions: no antidote
Protocol: The chemicals were tested in both preemergence and post-emergence modes of application. The herbicides were prepared and applied as wettable powders; dichlormid was applied as an emulsifiable concentrate, while the naphthalic anhydride was applied as a coating on the corn seed prior to planting.
Test data from the preemergence tests are shown in Table 25A and from the post-emergence tests in Table 25B. In the tables, the concentration of chemicals is shown in terms of active ingredient in grams per hectare (G/ha); concentrations of the naphthalic anhydride were not measured per se, but were present as in conventional, normally-coated applications. Corn injury is shown in terms of percent inhibition of growth.

[11] = test system: corn; assay: Example 12, Procedure II: Herbicide No. 1 + acetochlor (No. 6) with thirteen antidotes; format: in vivo
Protocol: as §1, §2, §3
This example was designed to investigate the efficacy of thirteen different antidotes from different classes of chemistry as safeners against compositions of Herbicide No. 1 and acetochlor (Herbicide No. 6) as co-herbicide. Acetochlor is the active ingredient in the commercial herbicides GUARDIAN® and WENNER®.
The test procedure used in this example was Procedure II described above.

[12] = test system: corn; assay: Example 3, Procedure I: antidotes against Herbicide No. 1; format: in vivo
Protocol: as §1, §2
(§9) This example details the results of tests with Antidote Nos. 12, 15 and 16 to safen Herbicide No. 1 over application rates ranging from 4.48 kg/ha down to 0.56 kg/ha, in corn in the presence of barnyardgrass. Procedure I described above was used in these tests.

[13] = test system: barnyardgrass (Echinochloa crusgalli); assay: as above; format: in vivo
Protocol: as §1, §2, §5, §9

[14] = test system: barnyardgrass (Echinochloa crusgalli); assay: Example 8, Procedure II: Herbicide No. 1 + butachlor (No. 9) with antidotes; format: in vivo; conditions: Herbicide No.9 2.24 kg/ha alone
Protocol: as §1, §2, §3, §5
(§10) In this test, the efficacy of the same five antidotes used in Examples 6 and 7 was investigated in compositions comprising Herbicide No. 1 and as a co-herbicide, butachlor (Herbicide No. 9), active ingredient in MACHETE® herbicide, a leading commercial rice herbicide. The test procedure used in this example was the same as that in Examples 6 and 7.

[15] = test system: velvetleaf (Abutilon theophrasti); assay: as above; format: in vivo; conditions: Herbicide No.9 2.24 kg/ha alone
Protocol: as §1, §2, §3, §5, §10

[16] = test system: corn; assay: as above; format: in vivo; conditions: Herbicide No.9 2.24 kg/ha alone
Protocol: as §1, §2, §3, §10

[17] = Herbicide No. 4 2.24 kg/ha alone
[18] = Herbicide No. 4 4.48 kg/ha alone
[19] = Herbicide No. 4 6.72 kg/ha alone
[20] = Herb. No. 1 0.56 kg/ha + antidote 0.56 kg/ha
[21] = Herb. No. 1 0.56 kg/ha + antidote 2.24 kg/ha
[22] = Herb. No. 1 0.56 kg/ha + antidote 8.96 kg/ha
[23] = Herb. No. 1 1.12 kg/ha + antidote 0.56 kg/ha
[24] = Herb. No. 1 1.12 kg/ha + antidote 2.24 kg/ha
[25] = Herb. No. 1 1.12 kg/ha + antidote 8.96 kg/ha
[26] = Herb. No. 1 2.24 kg/ha + antidote 0.56 kg/ha
[27] = Herb. No. 1 2.24 kg/ha + antidote 2.24 kg/ha
[28] = Herb. No. 1 2.24 kg/ha + antidote 8.96 kg/ha
[29] = Herb. No. 1 4.48 kg/ha + antidote 0.56 kg/ha
[30] = Herb. No. 1 4.48 kg/ha + antidote 2.24 kg/ha
[31] = Herb. No. 1 4.48 kg/ha + antidote 8.96 kg/ha
[32] = antidote 8.96 kg/ha alone, no herbicide

Compound: CC1COc2ccccc2N1C(=O)C(Cl)Cl (centres unmarked) [Antidote No. 17, 4-(Dichloroacetyl)-3,4-dihydro-3-methyl-2H-1,4-benzoxazine]
- safening of corn, assessment in words [1]: failed to safen

Compound: CCCN(CCC)C(=O)SCC [No. 4]
- % Injury Corn [2, 17]: 0%
- % Injury Corn [2, 18]: 0%
- % Injury Corn [2, 19]: 10%
- % Injury VL [3, 17]: 0%
- % Injury VL [3, 18]: 0%
- % Injury VL [3, 19]: 18%

Compound: CCc1cccc(C)c1N(C(=O)CCl)C(C)COC (centres unmarked) [Herbicide No. 12, 2-Chloro-N-(2-methoxy-1-methylethyl)-6'-ethyl-o-acetotoluidide, reference compound]
- % Injury BYG [4]: 100%
- % Injury VL [5]: 20%
- % Injury Corn [6]: 0%

Compound: CCc1cccc(CC)c1N(COC)C(=O)CCl [Herbicide No. 7, 2-Chloro-2',6'-diethyl-N-(methoxymethyl)acetanilide, reference compound]
- % Injury Corn [7]: 10%
- % Injury BYG [8]: 100%
- % Injury VL [9]: 25%

Compound: COC(=O)COC(c1ccccc1)c1ccccc1 [Antidote No. 20, Acetic acid, (diphenylmethoxy)-, methyl ester]
- safening of corn, assessment in words [1]: failed to safen

Compound: CCOC(=O)c1cnn(C)c1S(=O)(=O)NC(=O)Nc1nc(OC)cc(OC)n1 [Herbicide No. 3, N-[(4,6-dimethoxypyrimidin-2-yl)aminocarbonyl]-4-ethoxycarbonyl-1-methylpyrazole-5-sulfonamide]
- inhibition at 0.07 g/ha ([10]; Zea mays, pre-emergence, Preemergence, herbicide alone 0.07 G/ha): 19.1%
- inhibition at 0.25 g/ha ([10]; Zea mays, pre-emergence, Preemergence, herbicide alone 0.25 G/ha, read-out: % Inhibition Corn): 80.9%
- inhibition at 0.74 g/ha ([10]; Zea mays, pre-emergence, Preemergence, herbicide alone 0.74 G/ha): 80.9%
- inhibition at 0.25 g/ha ([10]; Zea mays, pre-emergence, preemergence, Herbicide No. 3 0.25 G/ha, read-out: corn injury, percent inhibition of growth): 80.9%

Compound: N#CC(=NOCC1OCCO1)c1ccccc1 [Antidote No. 6, Benzeneacetonitrile, α-{[(1,3-dioxolan-2-yl)methoxy]imino}-]
- safening of corn, assessment in words ([11]; Herbicide No. 1:Herbicide 6:Antidote 0.14:2.24:2.24 kg/ha): performed at commercial levels
- safening of corn, assessment in words ([11]; Herbicide No. 1:Herbicide 6:Antidote 0.14:2.24:8.96 kg/ha): performed at commercial levels

Compound: N-[(4,6-dimethoxypyridin-2-yl)aminocarbonyl]-3-chloro-4-ethoxycarbonyl-1-methylpyrazole-5-sulfonamide [Herbicide No. 2]
- % Inhibition Corn ([10]; Preemergence, herbicide alone 0.25 G/ha): 21.7%
- % Inhibition Corn ([10]; Preemergence, herbicide alone 0.74 G/ha): 36.4%
- % Inhibition Corn ([10]; Preemergence, herbicide alone 2.5 G/ha): 42.7%

Compound: CC1(C)OC(c2cccs2)CN1C(=O)C(Cl)Cl (centres unmarked) [compound 11]
- % Injury Corn [12, 20]: 15%
- % Injury Corn [12, 21]: 0%
- % Injury Corn [12, 22]: 0%
- % Injury Corn [12, 23]: 5%
- % Injury Corn [12, 24]: 0%
- % Injury Corn [12, 25]: 0%
- % Injury Corn [12, 26]: 30%
- % Injury Corn [12, 27]: 0%
- % Injury Corn [12, 28]: 0%
- % Injury Corn [12, 29]: 50%
- % Injury Corn [12, 30]: 30%
- % Injury Corn [12, 31]: 5%
- % Injury Corn [12, 32]: 15%
- % Injury BYG [13, 20]: 70%
- % Injury BYG [13, 21]: 20%
- % Injury BYG [13, 22]: 0%
- % Injury BYG [13, 23]: 80%
- % Injury BYG [13, 24]: 15%
- % Injury BYG [13, 25]: 0%
- % Injury BYG [13, 26]: 75%
- % Injury BYG [13, 27]: 30%
- % Injury BYG [13, 28]: 0%
- % Injury BYG [13, 29]: 80%
- % Injury BYG [13, 30]: 80%
- % Injury BYG [13, 31]: 50%
- % Injury BYG [13, 32]: 0%

Compound: O=C(O)COC(c1ccccc1)c1ccccc1 [Antidote No. 18, Acetic acid, (diphenylmethoxy)- sodium salt, hemihydrate]
- safening of corn, assessment in words [1]: failed to safen

Compound: CCCCOCN(C(=O)CCl)c1c(CC)cccc1CC [Herbicide No. 9, 2-Chloro-2',6'-diethyl-N-(butoxymethyl)acetanilide, reference compound]
- % Injury BYG [14]: 99%
- % Injury VL [15]: 25%
- % Injury Corn [16]: 5%
